How the values were obtained:
[1] = Hydrolytic (chemical) stability in Tris-HCl buffer pH 7.4; assay type: physicochemical; settings: 50 mM Tris-HCl buffer pH 7.4, incubation 30 min, without microsomes
Protocol: (§1) For all 43 compounds, a first evaluation of their chemical and metabolic stabilities toward hydrolysis was performed by incubating them in buffer under physiological conditions (50 mM Tris-HCl, pH 7.4) and in mouse liver microsomes (Table 1). This model was chosen because, similar to the human liver, both of the carboxylesterase isoforms are present. […] A more interesting trend was instead possible to observe with benzoic acids.
(§2) Hydrolytic stability in MLM and HLM
(§3) The standard incubation mixture (200 µL final volume) was carried out in a 50 mM TRIS-HCl buffer (pH 7.4) containing 150 mM KCl, tween 80 as cosolvent (0.8 mg/mg protein), and the substrate (10 μM). After pre-equilibration of the mixture, an appropriate volume of MLM or HLM suspension was added to give a final protein concentration of 1.0 mg/mL. The mixture was shaken for 30 minutes at 37 °C. Control incubations were carried out without the presence or microsomes or in pure acetonitrile. Each incubation was stopped by the addition of 200 µL ice-cold acetonitrile, vortexed and centrifuged at 13000 rpm for 5 min. The supernatants were analyzed by LC-HRMS. […]

[2] = Hydrolytic stability in mouse liver microsomes (MLM); assay type: in vitro ADME; settings: 30 min; for Residual substrate percentage, MLM: mouse liver microsomes 1.0 mg/mL protein, substrate 10 μM, 37 °C
Protocol: as §1, §2, §3

[3] = Hydrolytic stability in human liver microsomes (HLM); assay type: in vitro ADME; settings: for Residual substrate percentage, HLM: human liver microsomes 1.0 mg/mL protein, substrate 10 μM, 37 °C; for Residual substrate percentage, HLM / Hydrolytic stability in human liver microsomes (in words): 30 min; for Hydrolytic stability toward esterases (in words): liver microsomes, species stated only for the stable ester (human liver)
Protocol: This was made in light of the fact that the overall metabolizing capability of murine hepatic enzymes, including carboxylesterases, is supposed to be higher compared to the human ones.[17]
as §2, §3

| SMILES | Residual substrate percentage, buffer [1] [%] | Residual substrate percentage, MLM [2] [%] | Hydrolysis of the ester group in mouse liver microsomes (in words) [2] | Residual substrate percentage, HLM [3] [%] | Hydrolytic stability in human liver microsomes (in words) [3] | Hydrolytic stability toward esterases (in words) [3] | Hydrolytic stability toward esterases (in words) ([3]; listed as methyl 2,6-dimethylbenzoate) |
| --- | --- | --- | --- | --- | --- | --- | --- |
| CC(C)C(OC(=O)CCCCCc1ccccc1)C(=O)NC(C)(C)C (centres unmarked) [Compound 75, 1-(tert-butylamino)-3-methyl-1-oxobutan-2-yl 6-phenylhexanoate] | >99 | <1 | easily hydrolyzed | – | – | – | – |
| Cc1ccccc1C(OC(=O)c1ccccc1)C(=O)NC(C)(C)C (centres unmarked) [Compound 56] | >99 | <1 | – | – | – | – | – |
| CCCCCC(=O)OC(C(=O)NC(C)(C)C)C(C)C (centres unmarked) [Compound 71] | 91 | <1 | easily hydrolyzed | – | – | – | – |
| CC(=O)OC(C(=O)NC(C)(C)C)C(C)C (centres unmarked) [Compound 70] | 94 | 5 | easily hydrolyzed | – | – | – | – |
| CC(C)(C)NC(=O)COC(=O)C(C)(C)Oc1ccc(Cl)cc1 [Compound 84] | >99 | <1 | completely unstable | 2 | instability | – | – |
| CC(C)C(OC(=O)c1ccc([N+](=O)[O-])cc1)C(=O)NC(C)(C)C (centres unmarked) [Compound 69] | >99 | <1 | – | – | – | – | – |
| CC(C)C(OC(=O)c1ccc(Cl)cc1)C(=O)NC(C)(C)C (centres unmarked) [Compound 68] | >99 | <1 | – | – | – | – | – |
| Cc1ccccc1C(=O)OCC(=O)NC(C)(C)C [Compound 81] | >99 | <1 | the hydrolysis of the ester was complete | – | – | – | – |
| COC(=O)c1c(C)cccc1C [Compound 12, methyl 2,6-dimethylbenzoate, reference compound] | > 99 | 77 | – | > 99 | – | stable toward esterases | completely resistant to esterases |
| CC(C)C(OC(=O)C(C)(C)C)C(=O)NC(C)(C)C (centres unmarked) [Compound 73] | >99 | 30 | easily hydrolyzed | 52 | moderately more stable | – | – |
| CC(C)(C)NC(=O)COC(=O)Cc1c(Cl)cccc1Cl [Compound 82] | >99 | 1 | easily hydrolyzed | – | – | – | – |
| Cc1cccc(C)c1C(=O)OC(C(=O)NC(C)(C)C)C(C)C (centres unmarked) [Compound 93] | >99 | >99 | – | – | – | – | – |
| CC(C)C(OC(=O)COc1ccccc1)C(=O)NC(C)(C)C (centres unmarked) [Compound 76, 1-(tert-butylamino)-3-methyl-1-oxobutan-2-yl 2-phenoxyacetate] | >99 | <1 | completely unstable | – | – | – | – |
| Cc1ccc(C(=O)OC(C(=O)NC(C)(C)C)C(C)C)cc1 (centres unmarked) [Compound 67] | 94 | <1 | – | – | – | – | – |
| CCC(C(=O)OCC(=O)NC(C)(C)C)c1ccccc1 (centres unmarked) [Compound 92] | >99 | <1 | easily hydrolyzed | – | – | – | – |
| CC(C)C(OC(=O)Cc1ccccc1)C(=O)NC(C)(C)C (centres unmarked) [Compound 74, 1-(tert-butylamino)-3-methyl-1-oxobutan-2-yl 2-phenylacetate] | >99 | 17 | easily hydrolyzed | – | – | – | – |
| CC(C)(C)NC(=O)C(OC(=O)c1ccccc1)c1ccccc1 (centres unmarked) [Compound 62] | >99 | <1 | – | – | – | – | – |
| COC(=O)c1ccccc1 [Compound 11, methyl benzoate, reference compound] | > 99 | < 1 | – | < 1 | – | – | – |
| CC(C)(C)NC(=O)COC(=O)c1c(Cl)cccc1Cl [Compound 95] | >99 | 78 | – | – | – | – | – |
| CC(C)(C)NC(=O)COC(=O)c1ccccc1I [Compound 87] | >99 | <1 | the hydrolysis of the ester was complete | – | – | – | – |

| SMILES | Residual substrate percentage, buffer [1] [%] | Residual substrate percentage, MLM [2] [%] | Hydrolysis of the ester group in mouse liver microsomes (in words) [2] | Residual substrate percentage, HLM [3] [%] | Hydrolytic stability in human liver microsomes (in words) [3] | Hydrolytic stability toward esterases (in words) [3] | Hydrolytic stability toward esterases (in words) ([3]; listed as methyl 2,6-dimethylbenzoate) |
| --- | --- | --- | --- | --- | --- | --- | --- |
| CC(C)(C)NC(=O)COC(=O)c1ccccc1-c1ccccc1 [Compound 88] | >99 | – | – | – | – | – | – |
| CC(C)(C)NC(=O)COC(=O)c1c(F)cccc1F [Compound 85] | >99 | <1 | completely hydrolyzed | – | – | – | – |
| CCCCCCCCCCCC(=O)OC(C(=O)NC(C)(C)C)C(C)C (centres unmarked) [Compound 77, 1-(tert-butylamino)-3-methyl-1-oxobutan-2-yl dodecanoate] | 77 | 7 | easily hydrolyzed | – | – | – | – |
| CC(C)(C)NC(=O)C(OC(=O)c1ccccc1)c1ccc(Cl)cc1 (centres unmarked) [Compound 72] | >99 | <1 | rapidly cleaved | – | – | – | – |
| COc1ccc(C(OC(=O)c2ccccc2)C(=O)NC(C)(C)C)cc1 (centres unmarked) [Compound 63] | 92 | <1 | – | – | – | – | – |
| CC(C)(C)NC(=O)COC(=O)c1ccccc1Cl [Compound 90] | >99 | <1 | the hydrolysis of the ester was complete | – | – | – | – |
| CC(C)(C)NC(=O)COC(=O)C(C)(C)c1ccc(Br)cc1 [Compound 91] | >99 | 12 | easily hydrolyzed | – | – | – | – |
| CC(C)C(OC(=O)c1ccccc1)C(=O)NC(C)(C)C (centres unmarked) [Compound 59] | 94 | <1 | – | – | – | – | – |
| CCCCCCC(OC(=O)c1cccs1)C(=O)NC(C)(C)C (centres unmarked) [Compound 64] | >99 | <1 | – | <1 | instability | – | – |
| CC(C)(C)NC(=O)COC(=O)C12CC3CC(CC(C3)C1)C2 [Compound 97] | >99 | 1 | rapidly metabolized | 2 | instability | – | – |
| CCCCCCC(OC(=O)c1ccccc1)C(=O)NC(C)(C)C (centres unmarked) [Compound 60] | 93 | <1 | – | – | – | – | – |
| COc1ccc(C(=O)OC(C(=O)NC(C)(C)C)C(C)C)cc1 (centres unmarked) [Compound 66] | 92 | <1 | – | – | – | – | – |
| Cc1c(Br)cccc1C(=O)OCC(=O)NC(C)(C)C [Compound 89] | >99 | 1 | the hydrolysis of the ester was complete | <1 | easy hydrolysis | – | – |
| CC(C)(C)NC(=O)COC(=O)c1ccccc1 [Compound 61] | >99 | <1 | – | – | – | – | – |
| CC(C)(C)NC(=O)COC(=O)C(=O)c1ccccc1 [Compound 83] | <1 | <1 | completely unstable | – | – | – | – |
| CC(C)C(OC(=O)/C=C/c1ccccc1)C(=O)NC(C)(C)C (centres unmarked) [Compound 65] | >99 | <1 | completely unstable | 3 | instability | – | – |
| CC(C)(C)NC(=O)COC(=O)c1c(Cl)cccc1C(F)(F)F [Compound 96] | >99 | >99 | – | – | – | – | – |
| Cc1cccc(C)c1C(=O)OCC(=O)NCc1ccccc1 [Compound 94] | >99 | >99 | – | – | – | – | – |
| CC(C)(C)NC(=O)COC(=O)c1ccccc1Br [Compound 86] | >99 | <1 | the hydrolysis of the ester was complete | – | – | – | – |
| Cc1cccc(C)c1C(=O)OCC(=O)NC(C)(C)C [Compound 79] | 95 | 94 | – | – | – | – | – |

Reference: paper PMC9743426, “Expanding the Chemical Space of Drug-like Passerini Compounds: Can α-Acyloxy Carboxamides Be Considered Hard Drugs?” (ACS Medicinal Chemistry Letters, 2022)
